In patent US4673684A, “Amide derivatives and 5-lipoxygenase inhibitors containing the same as an active ingredient” (Terumo Corporation, priority 1984, dated 1987):

What follows are compounds tested against T1, 5-lipoxygenase (Mus musculus, UniProt P48999) (assay: 5-Lipoxygenase-inhibiting Activity (decrease in 5-HETE and LTB4 formed from radiolabelled arachidonic acid, enzyme solution from mouse mastcytoma cells P-815)). Settings: 5-HETE and LTB4 formation; mouse mastcytoma P-815 enzyme solution; 37° C., 5 min; pH 7.4; with indomethacin; read-out: 50% Inhibitory concentration IC50.
T1 construct: The supernatant is used as a 5-lipogenase enzyme solution; endogenous in cells
T1 sequence (P48999 1-674): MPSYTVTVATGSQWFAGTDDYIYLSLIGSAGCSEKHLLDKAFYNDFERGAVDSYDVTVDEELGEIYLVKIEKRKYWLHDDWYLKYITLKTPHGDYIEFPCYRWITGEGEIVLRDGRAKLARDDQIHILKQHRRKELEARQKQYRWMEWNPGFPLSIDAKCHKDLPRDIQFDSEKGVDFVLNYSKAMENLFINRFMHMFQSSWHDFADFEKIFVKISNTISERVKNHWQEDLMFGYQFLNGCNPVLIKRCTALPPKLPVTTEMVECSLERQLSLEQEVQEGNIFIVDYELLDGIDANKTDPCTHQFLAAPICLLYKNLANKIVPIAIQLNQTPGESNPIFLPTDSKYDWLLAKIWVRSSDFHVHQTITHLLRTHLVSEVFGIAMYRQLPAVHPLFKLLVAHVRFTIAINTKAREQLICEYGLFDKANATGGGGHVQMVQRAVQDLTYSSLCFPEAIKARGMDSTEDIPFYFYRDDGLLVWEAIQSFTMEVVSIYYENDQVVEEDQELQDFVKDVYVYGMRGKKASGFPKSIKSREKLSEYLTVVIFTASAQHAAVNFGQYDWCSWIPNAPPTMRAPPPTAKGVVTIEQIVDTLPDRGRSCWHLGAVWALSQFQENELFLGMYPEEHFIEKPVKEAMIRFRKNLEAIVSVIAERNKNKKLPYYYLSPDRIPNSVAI
Assay type: biochemical
Summary of the method: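 Enzyme is sonicated 10,000 rpm supernatant of P-815 mouse mastocytoma cells, reacted 5 min at 37 °C with radiolabelled arachidonic acid, indomethacin and CaCl2 in pH 7.4 phosphate buffer. 5-HETE and LTB4 separated by TLC and counted by scintillation; IC50 or IC30 is concentration reducing product to 50% or 30% of control.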

SMILES	IC50
COc1cc(/C=C/C(=O)N2CCN(CCCCn3cnc4c3c(=O)n(C)c(=O)n4C)CC2)cc(OC)c1O [Example 125, 7-[4-[4-{3-(3,5-dimethoxy-4-hydroxyphenyl)-2-propenoyl}piperazi-1-nyl]butyl]theophylline]	7000 nM
COc1cc(/C=C/C(=O)N2CCN(CCCn3cnc4c3c(=O)n(C)c(=O)n4C)CC2)cc(OC)c1OC [Example 127, 7-[3-[4-[3-(3,4,5-trimethoxyphenyl)-2-propenoyl]piperazi-1-nyl]-1-propyl]theopylline]	30000 nM
Cn1c(=O)c2c(ncn2CCCN2CCN(C(=O)/C=C/C=C/c3ccc(O)c(O)c3)CC2)n(C)c1=O [Example 128, 7-[3-[4-[5-(-dihydroxyphenyl)-2,4-pentadienoyl]piperazi-1-nyl]-1-propyl]theophylline]	1000 nM
COc1cc(/C=C/C=C/C(=O)N2CCN(CCCCn3cnc4c3c(=O)n(C)c(=O)n4C)CC2)ccc1O [Example 130]	1000 nM
COc1cc(/C=C/C=C/C(=O)N2CCN(CCCCn3cnc4c3c(=O)n(C)c(=O)n4C)CC2)cc(OC)c1O [Example 132]	1000 nM
COc1cc(/C=C/C=C/C(=O)N2CCN(CCCn3cnc4c3c(=O)n(C)c(=O)n4C)CC2)cc(OC)c1OC [Example 134, 7-[3-[4-[5-(3,4,5-trimethoxyphenyl)-2,4-pentadienoyl]piperazi-1-nyl]-1-propyl]theophylline]	20000 nM

The remaining lines, values ahead:

IC50	SMILES
200 nM	COc1cc(/C=C/C(=O)NCCCCN2CCC(OC(c3ccccc3)c3ccccc3)CC2)ccc1O [Example 124, 1-[4-[3-(3-methoxy-4-hydroxyphenyl)-2-propenoyl]aminobutyl]-4-benzhydroxypiperidine]
10 nM	COc1cc(/C=C/C(=O)NCCCN2CCC(OC(c3ccccc3)c3ccccc3)CC2)cc(OC)c1O [Example 126, 1-[3-{3-(3,5-dimethoxy-4-hydroxyphenyl)-2-propenoyl}aminopropyl]-4-benzhydroxypiperidine]
20 nM	O=C(/C=C/C=C/c1ccc(O)c(O)c1)NCCCCN1CCC(OC(c2ccccc2)c2ccccc2)CC1 [Example 129, 1-[4-[5-(3,4-dihydroxyphenyl)-2,4-pentadienoyl]aminobutyl]-4-benzhydroxypiperidine]
7 nM	COc1cc(/C=C/C=C/C(=O)NCCCN2CCC(OC(c3ccccc3)c3ccccc3)CC2)ccc1O [Example 131]
20 nM	COc1cc(/C=C/C=C/C(=O)NCCCCN2CCC(OC(c3ccccc3)c3ccccc3)CC2)cc(OC)c1O [Example 133, 1-[4-[5-(3,5-dimethoxy-4-hydroxyphenol)-2,4-pentadienoyl]aminobutyl]-4-benzydroxypiperidine]
